Measured values as given in patent US9980943B2, “Methods of treating muscular dystrophy” (BOARD OF REGENTS OF THE NEVADA SYSTEM OF HIGHER EDUCATION, …, priority 2013, dated 2018).

Columns and labels:
Format in all cases: cell-based, mouse
[1] = test system: α7 integrin (LacZ reporter in α7βgal+/− myoblasts); experiment: Myoblast α7+/LacZ integrin FDG assay (Burkin assay in myoblasts, 96-well); settings: α7+/LacZ myoblasts, 96-well
[2] = test system: α7 integrin (LacZ reporter in α7+/LacZ myotubes); experiment: Myotube α7 integrin FDG assay (Burkin assay in myotubes, 96-well); settings: myotubes
[3] = test system: β-galactosidase in CMV-LacZ C2C12 myoblasts; experiment: CMV-LacZ secondary screen in C2C12 myoblasts (β-Gal stabilizing assay); settings: CMV-LacZ C2C12 myoblasts
Text: In order to determine compounds that acted to stabilize β-gal in myogenic cells, a CMV-LacZ C2C12 cell line was used in a secondary screen. The EGFP gene from the pEGFP (Clontech) vector was replaced by LACZ PCR product with digests of the vector/PCR product performed using EcoRI (NEB) and NotI (NEB) and ligated using T4 DNA Ligase (NEB) following standard procedures to produce the CMV-LACZ vector. The LACZ gene was generated by PCR from the pBK-RSV (Stratagene) vector using primers LACZ EcoRI F- and LACZ NotI R-. The CMV-LACZ vector was then digested with AfIII (NEB) to linearize the construct, which was then transfected in C2C12 myoblasts using Lipofectamine 2000 (Invitrogen) following the manufacturer's instructions. […] Clonal lines were selected and screened for βgal levels using the myoblast FDG assay.
The assays were used the original 96-well format and new dose-response curves for myoblasts (N=3-6 replicates for each data point), myotubes (N=3-6 replicates for data point), and CMV-LacZ secondary assay (N=2 replicates for each data point) using concentrations of 0.5 μM, 1 μM, 5 μM, 10 μM, 20 μM, and 40 μM (Tables 9-16).

[4] = test system: β-galactosidase in CMV-LacZ C2C12 myotubes; experiment: CMV-LacZ secondary screen in C2C12 myotubes (β-Gal stabilizing assay); settings: C2C12 CMV-LacZ myotubes, fold relative to DMSO
In short: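 A secondary screen identifies compounds that stabilize β-gal independently of the native promoter, using CMV-LacZ C2C12 cells. Curves span 0.5–40 μM at six levels, in duplicate.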

SMILES | Burkin Assay in Myoblasts, signal relative to DMSO ([1]; 0.5 uM) | Burkin Assay in Myoblasts, signal relative to DMSO ([1]; 1 uM) | Burkin Assay in Myoblasts, signal relative to DMSO ([1]; 5 uM) | Burkin Assay in Myoblasts, signal relative to DMSO ([1]; 10 uM) | Burkin Assay in Myoblasts, signal relative to DMSO ([1]; 20 uM) | Burkin Assay in Myoblasts, signal relative to DMSO ([1]; 40 uM) | Burkin Assay in Myotubes, α7 integrin LacZ reporter signal relative to DMSO ([2]; 0.5 uM) | Burkin Assay in Myotubes, α7 integrin LacZ reporter signal relative to DMSO ([2]; 1 uM) | Burkin Assay in Myotubes, α7 integrin LacZ reporter signal relative to DMSO ([2]; 5 uM) | Burkin Assay in Myotubes, α7 integrin LacZ reporter signal relative to DMSO ([2]; 10 uM) | Burkin Assay in Myotubes, α7 integrin LacZ reporter signal relative to DMSO ([2]; 20 uM) | Burkin Assay in Myotubes, α7 integrin LacZ reporter signal relative to DMSO ([2]; 40 uM) | CMV-LACZ in Myoblasts (β-galactosidase activity relative to DMSO) ([3]; 0.5 uM) | CMV-LACZ in Myoblasts (β-galactosidase activity relative to DMSO) ([3]; 1 uM) | CMV-LACZ in Myoblasts (β-galactosidase activity relative to DMSO) ([3]; 5 uM) | CMV-LACZ in Myoblasts (β-galactosidase activity relative to DMSO) ([3]; 10 uM) | CMV-LACZ in Myoblasts (β-galactosidase activity relative to DMSO) ([3]; 20 uM) | CMV-LACZ in Myoblasts (β-galactosidase activity relative to DMSO) ([3]; 40 uM) | CMV-LACZ in Myotubes, signal relative to DMSO ([4]; 0.5 uM) | CMV-LACZ in Myotubes, signal relative to DMSO ([4]; 1 uM) | other results
COc1ccc(C(=O)Cn2nnc(-c3ccccc3NC(=O)c3ccco3)n2)cc1 [MLS000072290-01] | 1.405 | 1.196 | 0.7334 | 0.6517 | 0.3984 | 0.2238 | 1.109 | 1.121 | 0.9096 | 0.8405 | 0.475 | 0.1784 | 1.0579 | 0.9000 | 1.4390 | 1.3303 | 0.3911 | 0.2915 | 0.9362 | 1.1495 | CMV-LACZ in Myotubes, signal relative to DMSO ([4]; 5 uM): 1.3265; CMV-LACZ in Myotubes, signal relative to DMSO ([4]; 10 uM): 1.1459; CMV-LACZ in Myotubes, signal relative to DMSO ([4]; 20 uM): 1.3484; CMV-LACZ in Myotubes, signal relative to DMSO ([4]; 40 uM): 1.0653
CCC(C)n1[nH]c(=O)cc1N (stereo not drawn) [MLS000073150-01] | 1.262 | 1.0875 | 0.9262 | 0.909 | 1.139 | 1.068 | 1.111 | 0.9205 | 0.9467 | 0.9476 | 0.8369 | 0.856 | 1.0753 | 1.8970 | 0.8193 | 0.9954 | 0.9491 | 0.9000 | 1.0752 | 1.0848 | CMV-LACZ in Myotubes, signal relative to DMSO ([4]; 5 uM): 1.2058; CMV-LACZ in Myotubes, signal relative to DMSO ([4]; 10 uM): 1.1088; CMV-LACZ in Myotubes, signal relative to DMSO ([4]; 20 uM): 0.9750; CMV-LACZ in Myotubes, signal relative to DMSO ([4]; 40 uM): 1.0390
CC(=O)Nc1ccc(-n2c(C)nc(=O)c(-c3ccccc3)c2C)cc1 [MLS000078709-01] | 1.063 | 0.996 | 0.8157 | 0.8052 | 0.5171 | 0.2616 | 0.8374 | 0.8236 | 0.9535 | 0.9899 | 0.6311 | 0.4894 | 0.8167 | 0.7008 | 0.9270 | 1.0163 | 0.6919 | 0.4830 | 1.0133 | 0.9257 | CMV-LACZ in Myotubes, signal relative to DMSO ([4]; 5 uM): 0.9348; CMV-LACZ in Myotubes, signal relative to DMSO ([4]; 10 uM): 0.8743; CMV-LACZ in Myotubes, signal relative to DMSO ([4]; 20 uM): 1.0853; CMV-LACZ in Myotubes, signal relative to DMSO ([4]; 40 uM): 1.7737
